Results published in patent US20030068615A1, “Polypeptides that bind HIV gp120 and related nucleic acids, antibodies, compositions, and methods of use” (priority 1999, published 2003).
Where two headings read alike, the source gives them in different places.

Molecular target: HIV-1LAI envelope gp120 (Human immunodeficiency virus type 1 group M subtype B, UniProt P03377)
Assay type: binding
Conditions: for number of radioactive decays (counts) counted: human CD4 21-mer scan, empty control 2075; for Counts per 20′ Average-background: CCR5 18-mer scan, radiolabeled HIV-1LAI gp120
[1] = Panel A, 21-mers of CD4, empty control 515 and 617
[2] = Panel E, 9-mers and 12-mers of CD4, empty control 571
[3] = Panel C, 15-mers and 18-mers of CD4, empty control 556
[4] = STRL33 18-mer scan, background subtracted, first of two count columns
[5] = STRL33 18-mer scan, background subtracted, second of two count columns
[6] = CXCR4 18-mer scan, background subtracted, empty control 0
[7] = CXCR4 18-mer scan, empty control 412
[8] = Panel D, 9-mers and 12-mers of CD4, empty control […]
[9] = Panel B, 15-mers and 18-mers of CD4, empty control 575

## KKEGEQVEFSFPLAFTVEKLT
[1]
  COUNTS of radiolabeled gp120 retained: 1847 counts

## KKLPLHLTLPQALPQYAGSGN [human CD4 276-296]
  number of radioactive decays (counts) counted: 1922 counts

## KKVEFKIDI
[2]
  COUNTS of radiolabeled gp120 retained: 501 counts

## KKVEFKIDIVVL
[2]
  COUNTS of radiolabeled gp120 retained: 597 counts

## KKVEFKIDIVVLAFQ
[3]
  COUNTS of radiolabeled gp120 retained: 951 counts

## KKVEFKIDIVVLAFQKAS
[3]
  COUNTS of radiolabeled gp120 retained: 912 counts

## KLICGYHDEAISTVVLAT [STRL33 segment 177-194]
[4]
  radioactive counts recorded in twenty minutes: 1363.5 counts
[5]
  radioactive counts recorded in twenty minutes: 1604.5 counts

## KLLAEKVVYVGVWIPALL
[6]
  radioactive counts recorded in twenty minutes: 89 counts
[7]
  radioactive counts recorded in twenty minutes: 501 counts

## KLQMGKKLPLHLTLPQALPQY
  number of radioactive decays (counts) counted: 1949 counts

## KLQSLTDVFLVNLPLADL [STRL33 segment 61-78]
[4]
  radioactive counts recorded in twenty minutes: 412.5 counts
[5]
  radioactive counts recorded in twenty minutes: 348.5 counts

## KLSHSKGHQKRKALKTTV [CXCR4 segment 225-242]
[6]
  radioactive counts recorded in twenty minutes: 130 counts
[7]
  radioactive counts recorded in twenty minutes: 542 counts

## KLTGSGELW
[2]
  COUNTS of radiolabeled gp120 retained: 491 counts

## KLTGSGELWWQAERASSSKSW [human CD4 231-251]
  number of radioactive decays (counts) counted: 1878 counts

## KLVKDIGCLPYLGVSHQW [STRL33 segment 301-318]
[4]
  radioactive counts recorded in twenty minutes: −2.5 counts
[5]
  radioactive counts recorded in twenty minutes: 27.5 counts

## KNFWKLVKDIGCLPYLGV [STRL33 segment 297-314]
[4]
  radioactive counts recorded in twenty minutes: 143.5 counts
[5]
  radioactive counts recorded in twenty minutes: 82.5 counts

## KNLKIEDSD
[8]
  COUNTS of radiolabeled gp120 retained: 612 counts

## KNLKIEDSDTYI
[8]
  COUNTS of radiolabeled gp120 retained: 523 counts

## KNLKIEDSDTYICEV
[9]
  COUNTS of radiolabeled gp120 retained: 562 counts

## KNLKIEDSDTYICEVEDQ
[9]
  COUNTS of radiolabeled gp120 retained: 708 counts

## KRGGHSSVSTESESSSFH [CXCR4 segment 333-350]
[6]
  radioactive counts recorded in twenty minutes: 167 counts
[7]
  radioactive counts recorded in twenty minutes: 579 counts

## KRHRAVRLIFTIMIVYFL [CCR5 segment 229-]
Background subtracted
  Counts per 20′ Average-background: 36 counts per 20′

## KRLLSEKKTCQCPERFQKTCS [human CD4 436-456]
  number of radioactive decays (counts) counted: 1674 counts

## KVEFKIDIV
[2]
  COUNTS of radiolabeled gp120 retained: 555 counts

## KVEFKIDIVVLA
[2]
  COUNTS of radiolabeled gp120 retained: 560 counts

## KVEFKIDIVVLAFQK
[3]
  COUNTS of radiolabeled gp120 retained: 1051 counts

## KVEFKIDIVVLAFQKASS
[3]
  COUNTS of radiolabeled gp120 retained: 1011 counts

## KVEFKIDIVVLAFQKASSIVY
[1]
  COUNTS of radiolabeled gp120 retained: 635 counts

## KVTSLLIWVISLLVSLPQ
[4]
  radioactive counts recorded in twenty minutes: −39.5 counts
[5]
  radioactive counts recorded in twenty minutes: −118.5 counts

## LAFQKASSI
[2]
  COUNTS of radiolabeled gp120 retained: 592 counts

## LAFQKASSIVYK
[2]
  COUNTS of radiolabeled gp120 retained: 465 counts

## LAFQKASSIVYKKEG
[3]
  COUNTS of radiolabeled gp120 retained: 593 counts

## LAFQKASSIVYKKEGEQV
[3]
  COUNTS of radiolabeled gp120 retained: 665 counts

## LAFQKASSIVYKKEGEQVEFS
[1]
  COUNTS of radiolabeled gp120 retained: 1410 counts

## LAFTVEKLT
[2]
  COUNTS of radiolabeled gp120 retained: 501 counts

## LAFTVEKLTGSG
[2]
  COUNTS of radiolabeled gp120 retained: 608 counts

## LAFTVEKLTGSGELW
[3]
  COUNTS of radiolabeled gp120 retained: 579 counts

## LAFTVEKLTGSGELWWQA
[3]
  COUNTS of radiolabeled gp120 retained: 866 counts

## LAFTVEKLTGSGELWWQAERA
[1]
  COUNTS of radiolabeled gp120 retained: 3577 counts

## LEAKTGKLHQEVNLVVMRATQ [human CD4 301-321]
  number of radioactive decays (counts) counted: 1729 counts

## LFFLLTVPFWAHYAAAQW [CCR5 segment 77-94]
Background subtracted
  Counts per 20′ Average-background: 173 counts per 20′

## LGAKFKTSAQHALTSVSR
[6]
  radioactive counts recorded in twenty minutes: 200 counts
[7]
  radioactive counts recorded in twenty minutes: 612 counts

## LGLVLPLLVMVICYSGIL
Background subtracted
  Counts per 20′ Average-background: 180 counts per 20′

## LGMTHCCINPIIYAFVGE [CCR5 segment 285-]
Background subtracted
  Counts per 20′ Average-background: 282 counts per 20′

## LIIKNLKIE
[8]
  COUNTS of radiolabeled gp120 retained: 515 counts

## LIIKNLKIEDSD
[8]
  COUNTS of radiolabeled gp120 retained: 619 counts

## LIIKNLKIEDSDTYI
[9]
  COUNTS of radiolabeled gp120 retained: 542 counts

## LIIKNLKIEDSDTYICEV
[9]
  COUNTS of radiolabeled gp120 retained: 634 counts

## LILAFISLDRYLAIVHAT
[6]
  radioactive counts recorded in twenty minutes: 107 counts
[7]
  radioactive counts recorded in twenty minutes: 519 counts

## LILINCKRLKSMTDIYLL [CCR5 segment 53-70]
Background subtracted
  Counts per 20′ Average-background: 2 counts per 20′

## LKARTVTFGVWDSVITWV [CCR5 segment 137-]
Background subtracted
  Counts per 20′ Average-background: 74 counts per 20′

## LKFRKNFWKLVKDIGCLP [STRL33 segment 293-310]
[4]
  radioactive counts recorded in twenty minutes: 920.5 counts
[5]
  radioactive counts recorded in twenty minutes: 957.5 counts

## LKIEDSDTY
[8]
  COUNTS of radiolabeled gp120 retained: 492 counts

## LKIEDSDTYICE
[8]
  COUNTS of radiolabeled gp120 retained: 635 counts

## LKIEDSDTYICEVED
[9]
  COUNTS of radiolabeled gp120 retained: 846 counts

## LKIEDSDTYICEVEDQKE
[9]
  COUNTS of radiolabeled gp120 retained: 872 counts

## LKNKEVSVKPVTQDPKLQMGK [human CD4 256-276]
  number of radioactive decays (counts) counted: 2288 counts

## LKSMTDIYLLNLAISDLF [CCR5 segment 61-78]
Background subtracted
  Counts per 20′ Average-background: 210 counts per 20′

## LLFVITLPFWAVDAVANW
[6]
  radioactive counts recorded in twenty minutes: 63 counts
[7]
  radioactive counts recorded in twenty minutes: 475 counts

## LLGIYTINFYTSMLILTC
[4]
  radioactive counts recorded in twenty minutes: 499.5 counts
[5]
  radioactive counts recorded in twenty minutes: 408.5 counts

## LLIWVISLLVSLPQIIYG [STRL33 segment 153-170]
[4]
  radioactive counts recorded in twenty minutes: 42.5 counts
[5]
  radioactive counts recorded in twenty minutes: 75.5 counts

## LLLTIPDFIFANVSEADD
[6]
  radioactive counts recorded in twenty minutes: 1006 counts
[7]
  radioactive counts recorded in twenty minutes: 1418 counts

## LLNLAISDLFFLLTVPFW [CCR5 segment 69-86]
Background subtracted
  Counts per 20′ Average-background: 144 counts per 20′

## LLQGQSLTL
[8]
  COUNTS of radiolabeled gp120 retained: 568 counts

## LLQGQSLTLTLE
[8]
  COUNTS of radiolabeled gp120 retained: 1320 counts

## LLRCRNEKKRHRAVRLIF
Background subtracted
  Counts per 20′ Average-background: 102 counts per 20′

## LLSDSGQVLLESNIKVLPTWS [human CD4 371-391]
  number of radioactive decays (counts) counted: 2375 counts

## LLTIDRYLAVVHAVFALK
Background subtracted
  Counts per 20′ Average-background: 31 counts per 20′

## LLTQMPFNLMKFIRSTHW
[4]
  radioactive counts recorded in twenty minutes: 2513.5 counts
[5]
  radioactive counts recorded in twenty minutes: 3154.5 counts

## LLVFGLTAN
[8]
  COUNTS of radiolabeled gp120 retained: 576 counts

## LLVFGLTANSDT
[8]
  COUNTS of radiolabeled gp120 retained: 533 counts

## LLVFGLTANSDTHLL
[9]
  COUNTS of radiolabeled gp120 retained: 599 counts

## LLVFGLTANSDTHLLQGQ
[9]
  COUNTS of radiolabeled gp120 retained: 568 counts

## LMKFIRSTHWEYYAMTSF [STRL33 segment 249-266]
[4]
  radioactive counts recorded in twenty minutes: 934.5 counts
[5]
  radioactive counts recorded in twenty minutes: 949.5 counts

## LNPEAGMWQCLLSDSGQVLLE [human CD4 361-381]
  number of radioactive decays (counts) counted: 6316 counts

## LNPILYAFLGAKFKTSAQ [CXCR4 segment 297-314]
[6]
  radioactive counts recorded in twenty minutes: 274 counts
[7]
  radioactive counts recorded in twenty minutes: 686 counts

## LNTFQEFFGLNNCSSSNR [CCR5 segment 257-]
Background subtracted
  Counts per 20′ Average-background: 293 counts per 20′

## LPGIIFTRSQKEGLHYTC
Background subtracted
  Counts per 20′ Average-background: 118 counts per 20′

## LPLADLVFVCTLPFWAYA [STRL33 segment 73-90]
[4]
  radioactive counts recorded in twenty minutes: 557.5 counts
[5]
  radioactive counts recorded in twenty minutes: 960.5 counts

## LPLLVMVICYSGILKTLL [CCR5 segment 205-]
Background subtracted
  Counts per 20′ Average-background: 68 counts per 20′

## LPPLYSLVFIFGFVGNML [CCR5 segment 33-50]
Background subtracted
  Counts per 20′ Average-background: 705 counts per 20′

## LPTIYSIIFLTGIVGNGL [CXCR4 segment 41-58]
[6]
  radioactive counts recorded in twenty minutes: 118 counts
[7]
  radioactive counts recorded in twenty minutes: 530 counts

## LPYLGVSHQWKSSEDNSK
[4]
  radioactive counts recorded in twenty minutes: 111.5 counts
[5]
  radioactive counts recorded in twenty minutes: 122.5 counts

## LPYYIGISIDSFILLEII
[6]
  radioactive counts recorded in twenty minutes: 439 counts
[7]
  radioactive counts recorded in twenty minutes: 851 counts

## LQGQSLTLT
[8]
  COUNTS of radiolabeled gp120 retained: 501 counts

## LQNQKKVEF
[2]
  COUNTS of radiolabeled gp120 retained: 565 counts

## LQNQKKVEFKID
[2]
  COUNTS of radiolabeled gp120 retained: 508 counts

## LQNQKKVEFKIDIVV
[3]
  COUNTS of radiolabeled gp120 retained: 644 counts

## LQNQKKVEFKIDIVVLAF
[3]
  COUNTS of radiolabeled gp120 retained: 938 counts

## LRSMTDKYRLHLSVADLL [CXCR4 segment 69-86]
[6]
  radioactive counts recorded in twenty minutes: 160 counts
[7]
  radioactive counts recorded in twenty minutes: 572 counts

## LSKGKRGGHSSVSTESES
[6]
  radioactive counts recorded in twenty minutes: 185 counts
[7]
  radioactive counts recorded in twenty minutes: 597 counts

## LTANSDTHL
[8]
  COUNTS of radiolabeled gp120 retained: 596 counts

## LTANSDTHLLQG
[8]
  COUNTS of radiolabeled gp120 retained: 534 counts

## LTANSDTHLLQGQSL
[9]
  COUNTS of radiolabeled gp120 retained: 634 counts

## LTANSDTHLLQGQSLTLT
[9]
  COUNTS of radiolabeled gp120 retained: 528 counts

## LTCEVWGPTSPKLMLSLKLEN
  number of radioactive decays (counts) counted: 2412 counts

## LTDVFLVNLPLADLVFVC [STRL33 segment 65-82]
[4]
  radioactive counts recorded in twenty minutes: 233.5 counts
[5]
  radioactive counts recorded in twenty minutes: 336.5 counts

## LTGSGELWW
[2]
  COUNTS of radiolabeled gp120 retained: 550 counts

## LTMIVCYSVIIKTLLHAG [STRL33 segment 205-222]
[4]
  radioactive counts recorded in twenty minutes: 2787.5 counts
[5]
  radioactive counts recorded in twenty minutes: 2654.5 counts

## LTSVSRGSSLKILSKGKR
[6]
  radioactive counts recorded in twenty minutes: 183 counts
[7]
  radioactive counts recorded in twenty minutes: 595 counts

## LTVPFWAHYAAAQWDFGN [CCR5 segment 81-98]
Background subtracted
  Counts per 20′ Average-background: 306 counts per 20′
